Converted amounts (≈) assume the structure as drawn.

Results on two compounds are retold here after patent US8916602B2, “Fusarisetin compounds, and use thereof” (Korea Research Institute of Bioscience and Biotechnology, priority 2010, dated 2014).

Common to all, as to assay type: cell-based
In test [1] the test system is human breast cancer cell line (MDA-MB-231). The experiment in a line: Inhibition of cancer cell proliferation (WST-8 cell survival), MDA-MB-231. Conditions: MDA-MB-231 cell line, 48 hours culture with compound, WST-8, OD450. How it is done: (§1) Following experiment was performed to investigate the inhibitory activity of the compounds 1 and 2 of the present invention on the proliferation of cancer cells.
(§2) Particularly, human breast cancer cell line (MDA-MB-231, 5.0×10^3 cells per well), mouse fibroblast cell line (3Y1, 5.0×10^3 cells per well), and human liver cancer cell line (Hep3B, 5.0×10^3 cells per well) were cultured respectively in DMEM (Dulbecco's modification of Eagles medium, supplemented with 10% FBS). And human chronic myeloid leukemia cell line (K562, 3.0×10^4 cells per well) and human promyelocytic leukemia cell line (HL-60, 1.0×10^5 cells per well) were cultured respectively in RPMI 1640 (Roswell Park Memorial Institute 1640 medium, supplemented with 10% FBS). Each cell line cultured above was treated with different concentrations of the compound 1 and compound 2 (100 μg/ml, 30 μg/ml, 10 μg/ml, 3 μg/ml, and 1 μg/ml), followed by culture in a 5% CO2 incubator for 48 hours at 37° C. WST-8 reagent (2-(2-methoxy-4-nitrophenyl)-3-(4-nitrophenyl)-5-(2,4-disulfophenyl)-2H-tetrazolium, monosodium salt) producing high sensitive water soluble formazan was added thereto, followed by further culture for 24 hours. OD450 was measured to calculate cell survival rate.
A general note: Tetrazolium assays rely on reduction of a dye to a coloured formazan, in cell work by metabolically active cells.

The test system of test [2] is human promyelocytic leukemia cell line (HL-60). As to the kind of experiment: Inhibition of cancer cell proliferation (WST-8 cell survival), HL-60. Conditions: HL-60 cell line, 48 hours culture with compound, WST-8, OD450. How it is done:
as §1, §2

Test [3] deals with human breast cancer cells (MDA-MB-231 cells). As to the kind of experiment: Inhibition of cancer cell metastasis, trans-well chamber (Matrigel Invasion Chamber). Conditions: migration induced by 10% FBS, 24 hours, tested at 30, 10 and 3 μg/ml. The procedure: Trans-well chamber (BioCoat™ Matrigel™ Invasion Chamber, pore size 8 μm, BD Biosciences, Bedford, Mass.) was used for the investigation of inhibitory activity of the compounds of the present invention on cancer cell metastasis. Particularly, human breast cancer cells (MDA-MB-231 cells) were distributed on the upper part of the chamber at the density of 1.0×10^5 cells per well. DMEM (Dulbecco's modification of Eagles medium, serum-free) was used for the culture. 30 minutes later, the compounds 1 and 2 were added to the upper part of the chamber at different concentrations of 30 μg/ml, 10 μg/ml, and 3 μg/ml, respectively. 30 minutes later, 10% FBS was added to the bottom of the chamber, followed by culture in a 5% CO2 incubator at 37° C. for 24 hours. 24 hours later, the cells migrated through porous membrane which had been induced by 10% FBS in the bottom of the chamber were fixed with 100% MeOH, followed by staining with Wright stain. Upon completion of the staining, the migrated cells were counted under microscope.

In test [4] the test system is mouse fibroblast cell line (3Y1). As to the kind of experiment: Inhibition of cell proliferation (WST-8 cell survival), 3Y1. Conditions: 3Y1 cell line, 48 hours culture with compound, WST-8, OD450. How it is done:
as §1, §2

The subject of test [5] is human chronic myeloid leukemia cell line (K562). As to the kind of experiment: Inhibition of cancer cell proliferation (WST-8 cell survival), K562. Conditions: 48 hours culture with compound, WST-8, OD450. The procedure: as §1, §2
The subject of test [6] is human liver cancer cell line (Hep3B). As to the kind of experiment: Inhibition of cancer cell proliferation (WST-8 cell survival), Hep3B. Conditions: 48 hours culture with compound, WST-8, OD450. The procedure: as §1, §2

Broadly, the IC50 is the midpoint of a concentration-inhibition curve. With `C[C@H]1CC[C@H]2[C@@H](C=C[C@@H]3[C@H]4[C@H](C)O[C@]5(O)[C@@H](CO)N(C)C(=O)[C@]45C(=O)[C@@]32C)C1` [compound 2, fusarisetin B], the IC50 in test [1] worked out at 76.5 µg/mL (≈ 196 µM); in test [2] it was 29.4 µg/mL (≈ 75.5 µM); in test [4] it was 62.2 µg/mL (≈ 160 µM); in test [5], 49.3 µg/mL (≈ 127 µM); in test [6], 27.2 µg/mL (≈ 69.8 µM). For the same compound, the “ED100 indicating the concentration capable of inhibiting metastasis of human breast cancer cell line by 100%” value in test [3] was found to be 10 µg/mL.

Turning to `C[C@H]1CC[C@H]2[C@@H](C=C[C@@H]3[C@H]4[C@@H](C)O[C@]5(O)[C@@H](CO)N(C)C(=O)[C@]45C(=O)[C@@]32C)C1` [compound 1, fusarisetin A], the half-maximal inhibitory concentration (IC50) was found to be 69.5 µg/mL (≈ 178 µM) in test [1]; 57.7 µg/mL (≈ 148 µM) in test [2]; 67.5 µg/mL (≈ 173 µM) in test [4]; 61.3 µg/mL (≈ 157 µM) in test [5]; 34.7 µg/mL (≈ 89.1 µM) in test [6]. For the same compound, in test [3], the “ED100 indicating the concentration capable of inhibiting metastasis of human breast cancer cell line by 100%” value was 10 µg/mL.
